{
  "source": "ChEMBL document CHEMBL3526085",
  "about": "“Decreased hepatic breast cancer resistance protein expression and function in multidrug resistance-associated protein 2-deficient (TR⁻) rats” (Drug Metab Dispos, 2011)",
  "system": "Hepatocyte",
  "conditions": "rat, hepatocytes, 10 min, 5 µM",
  "data": [
    {"molecule": "O=C(O)C[C@H](O)C[C@H](O)/C=C/c1c(C2CC2)nc2ccccc2c1-c1ccc(F)cc1", "note": "[PITAVASTATIN]", "values": [
      {"measurement": "CLb", "result": 52, "unit": "%"}
    ]}
  ]
}
